Values of other authors, collected in US20050003341A1, “Drug discovery assays based on the biology of atherosclerosis, cancer, and alopecia” (priority 2003, published 2005).
Like-named read-outs stand apart in the source and are kept apart here.

Experiments:
VCAM-1 = details: 36 dyn/cm^2; 7.0-13.99 minutes
CD18 = details: neutrophils, 10^−8 M for 10 min
TF [1] = details: mononuclear leukocytes exposed to endotoxin
TF [2] = details: cultured monocytes
ACE [3] = details: for total lesion area compared to placebo: zofenopril 0.05 or 1, captopril 5, enalapril 0.5 mg/kg/day
ACE [4] = details: after 6 weeks
AT1-receptor = details: 25 mg/kg/day
papilla cells = details: 14 days; testosterone 345 nM, DHT 345 mM as printed
apoE(−/−) mice = details: aortic sinus, 48 hours post injection
TF [5] = details: cells incubated with AGE-alb
TF mRNA = details: obese mice, 10 to 20 weeks of age
AR mRNA [6] = details: LNCaP cells (Lin 2001)
[7] = system: Moloney murine leukemia virus (MMuLV); Rous sarcoma virus (RSV); details: chick embryo fibroblasts
ACE [8] = system: ACE
ACE [9] = details: 5 or 10 mg/day vs placebo, 4 years
ACE [10] = system: ACE; remark: listed apart in the source
NF-κB [11] = system: NF-κB
AR mRNA [12] = details: 50 μg/ml, 4 hours
TF [13] = details: THP-1
TF [14] = details: Western blotting; untreated smokers 2.3±0.7
leukocytes [15] = details: 0.1 and 1 mM, similar in vitro assay
leukocytes [16] = details: 5-20 mg/kg/day, oral
ACE [17] = details: 0.5 mg/kg/day, p<0.05
U251.3 glioma cells = details: 3-100 μg/ml, dose dependently
U937 = details: p<0.05
AR gene = details: 10^−8 M
TF [18] = system: TF
NF-κB [19] = system: NF-κB; remark: listed apart in the source
TF antigen = details: starting on day 3, significant on day 28
ACE [20] = details: 5 mg/day vs placebo, 4 years
CD40 = details: concentration- and time-dependent

## MCP-1: a chemokine
VCAM-1
  average percent of monocyte remaining bound: 46%

## CSCC[C@H](NC=O)C(=O)N[C@@H](CC(C)C)C(=O)N[C@@H](Cc1ccccc1)C(=O)O [fMLP, N-formylmethionyl-leucyl-phenylalanine]
CD18
  increase in CD18 surface membrane concentration compared to unstimulated cells: 4 fold

## C[C@H](CS)C(=O)N1CCC[C@H]1C(=O)O [captopril]
TF [1]
  increase in TF mRNA: inhibited
TF [2]
  TF antigen and mRNA: decreased
ACE [3]
  total lesion area compared to placebo: significantly decreased
hamsters; controls 130±5
  cell size of macrophage derived foam cells: did not change
hamsters; controls 376±6
  heart rate: 348+6 beats/min
hamsters; p=0.092 pravastatin, p=0.056 captopril
  decrease in fatty streak area: 35%
ACE [4]; week 4: 87±9, p<0.05
  number of subendothelial macrophage derived foam cells: 52±9 cell/mm^2
ACE [4]; week 4: 113±8, p<0.05
  average size of a foam cell: 89±5 μm^2
ACE [4]; week 4: 125±18, p<0.05
  area of fatty streak: 55±12 μm2×1,000
ACE [4]; week 4: 144±27, not significant
  area of extracellular lipid particles: 157±36 μm2×1,000

## CCCCc1cc(C(=O)OC)cc(=O)n1Cc1ccc(-c2ccccc2-c2nnn[nH]2)cc1F [Bay 10-6734]
AT1-receptor; controls 28.6±7.5%
  fat-stained area in the aorta: 5.3±1.4%
AT1-receptor; controls 58.8±15%
  % of macrophage stained area/total plaque cross sectional area: 1±0.2%

## C[C@]12CC[C@H]3[C@@H](CCC4=CC(=O)CC[C@@]43C)[C@@H]1CC[C@@H]2O [Testosterone, testosterone]
ERK; a variety of cells, cited studies
  ERK phosphorylation: increase
Papilla cells
  papilla cell proliferation: significantly decreased

## CCCCCCCCCCCCCCCC(=O)OC[C@H](COP(=O)([O-])OCC[N+](C)(C)C)OC(=O)CCCCCCCCCCCCCCC [DPPC, dipalmitoylphosphatidylcholine]
apoE(−/−) mice; saline 10.4±3.4
  macrophage content: 9.3±5.8 % of plaque area
apoE(−/−) mice; saline 19.6±6.3
  lipid content: 18.1±4.7 % of plaque area

## CC(=O)N[C@@H](CS)C(=O)O [NAC, N-acetylcysteine]
TF [5]
  TF activity: concentration dependent inhibition

## CCOC(=O)[C@H](CCc1ccccc1)N[C@H]1CS[C@H](c2cccs2)CN(CC(=O)O)C1=O [temocapril]
TF mRNA
  increase in TF mRNA: attenuated

## IL-6: interleukin 6
ERK; LNCaP cells (Chen T 1999)
  ERK phosphorylation: increased
AR mRNA [6]
  AR mRNA: decreased

## C/C=C/C/C=C/CCC(=O)[C@H]1O[C@H]1C(N)=O [cerulenin]
[7]
  Rous sarcoma virus (RSV) production: inhibited

## CCOC(=O)[C@H](CCc1ccccc1)N[C@@H](C)C(=O)N1[C@H](C(=O)O)C[C@@H]2CCC[C@@H]21 [ramipril]
ACE [8]; 10 mg/day, 4.5 years, placebo 8.1%
  rate of death from cardiovascular causes: 6.1%
ACE [8]; placebo 1.3%
  rate of cardiac arrest: 0.8%
ACE [8]; placebo 4.9%
  rate of stroke: 3.4%
ACE [8]; placebo 7.6%
  rate of complications related to diabetes: 6.4%
ACE [8]; placebo 11.6%
  rate of heart failure: 9.1%
ACE [8]; placebo 12.2%
  rate of death from any cause: 10.4%
ACE [8]; placebo 12.3%
  rate of myocardial infarction: 9.9%
ACE [8]; placebo 18.8%
  rate of revascularization procedures: 16.3%
ACE [8]; vs placebo
  RR, cardiac arrest: 0.62
  RR, complications related to diabetes: 0.84
  RR, death from any cause: 0.84
  RR, death from cardiovascular causes: 0.74
  RR, heart failure: 0.77
  RR, myocardial infarction: 0.80
  RR, revascularization procedures: 0.85
  RR, stroke: 0.68
ACE [9]
  changes in thickness of the common carotid artery wall, or carotid plaque height: no significant difference
ACE [10]; 10 mg/day, placebo 0.0217±0.0027, p=0.0033
  progression slope of the mean maximum carotid intimal medial thickness (IMT): 0.0137±0.0024 mm/year
ACE [10]; at 4.5 years
  decrease in progression of carotid intima media thickness: 0.008 mm per year

## CC[C@H](C)C(=O)O[C@H]1CCC=C2C=C[C@H](C)[C@H](CC[C@@H]3C[C@@H](O)CC(=O)O3)[C@H]21 [mevastatin]
NF-κB [11]; EC
  NF-κB activation: inhibited

## C[C@@H]1C[C@@H]([C@H](O)CC2CC(=O)NC(=O)C2)C(=O)[C@@H](C)C1 [cycloheximide]
AR mRNA [12]
  increase in AR mRNA: 1.7 ± 0.4 fold

## CC(=O)Oc1ccccc1C(=O)O [aspirin, Acetylsalicylic Acid]
TF [13]
  LPS-induced translocation of c-Rel/p65: inhibited
TF [14]
  increase in TF concentration compared to non-smoker mice: 1.3±0.17 fold
Leukocytes [15]
  migration of human lymphocytes: stimulated migration
Leukocytes [16]
  increase in leukocyte migration relative to control values: 20-70%

## C[C@H](CSC(=O)c1ccccc1)C(=O)N1C[C@@H](Sc2ccccc2)C[C@H]1C(=O)O [zofenopril]
ACE [3]; 1 mg/kg/day
  macrophage-derived foam cells staining in the intima: significant decrease
  native LDL staining in the intima: significant decrease
ACE [3]
  total lesion area compared to placebo: significantly decreased
ACE [17]
  decrease in aortic corrected cumulative lesion area: 34%
  decrease in common carotid corrected cumulative lesion area: 39%

## TNC: large ECM glycoprotein
U251.3 glioma cells
  migration distance: increased migration distance

## CC(C)CCC[C@@H](C)[C@H]1CC[C@H]2[C@@H]3C(=O)C=C4C[C@@H](O)CC[C@]4(C)[C@H]3CC[C@]12C [7-ketocholesterol]
U937
  GSH content compared to controls: lower GSH content

## C[C@]1(O)CC[C@H]2[C@@H]3CCC4=CC(=O)CCC4=C3C=C[C@@]21C [R1881, methyltrienolone]
AR gene; 8 hours
  transcription of the endogenous AR gene, of control levels: 85%
AR gene; 24 hours
  transcription of the endogenous AR gene, of control levels: 73%

## CC1=C(/C=C/C(C)=C/C=C/C(C)=C/C(=O)O)C(C)(C)CCC1 [ATRA, all-trans retinoic acid]
TF [18]; LPS 10 μg/ml 1 hour, ATRA 10^−5 mol/L 30 minutes before LPS
  rate of TF transcription, nuclear run-on: decreased TF transcription
TF [18]; THP-1, 30 minutes, 10^−5 mol/L
  TF mRNA: decrease
TF [18]; pTF(−2106)LUC transfected THP-1, 30 minutes, 10^−5 mol/L
  LUC activity relative to untreated cells: no decrease

## angiotensin II: angiotensin II (DRVYIHPF; Angiotensin-2; UniProt P01019 25-32, looked up)
NF-κB [19]; cultured monocytes and VSMC
  NF-κB activation: increased
TF [2]
  TF antigen and mRNA: dose-depended increase

## CCCCc1nc(Cl)c(CO)n1Cc1ccc(-c2ccccc2-c2nn[nH]n2)cc1 [losartan]
TF antigen
  effect on plasma TF antigen levels: negative effect

## CCOC(=O)[C@H](CCc1ccccc1)N[C@@H](C)C(=O)N1Cc2ccccc2C[C@H]1C(=O)O [quinapril]
NF-κB [19]; rabbit femoral arteries
  NF-κB activity in atherosclerotic vessels: decreased

## CCOC(=O)[C@H](CCc1ccccc1)N[C@@H](C)C(=O)N1CCC[C@H]1C(=O)O [enalapril]
ACE [3]
  total lesion area compared to placebo: no significant decrease
ACE [20]
  changes in mean absolute diameter, minimum absolute diameter, percent diameter stenosis: no significant difference

## O=C(O)C[C@H](O)C[C@H](O)/C=C/c1c(C2CC2)nc2ccccc2c1-c1ccc(F)cc1 [pitavastatin]
NF-κB [11]; human kidney 293 T-cells
  NF-κB activation: inhibited

B1: CD40L: ligand of CD40, native or recombinant human (protein, UniProt P29965 113-261, looked up)
CD40 ligand, soluble form: MQKGDQNPQIAAHVISEASSKTTSVLQWAEKGYYTMSNNLVTLENGKQLTVKRQGLYYIYAQVTFCSNREASSQAPFIASLCLKSPGRFERILLRAANTHSSAKPCGQQSIHLGGVFELQPGASVFVNVTDPSQVSHGTGFTSFGLLKL
CD40
  TF expression on the surface of cultured human vascular SMC: transient increase
